Series [1] in a line: Adsorption of compounds to aluminum hydroxide in histidine buffer (pH 6.8). It is filed as physicochemical. Particulars: histidine buffer pH 6.8, 0.1 mg/mL compound, 37° C. 5 hours.
Method: The resulting solution was diluted 10-fold with blank histidine buffer to a final compound concentration of 0.1 mg/mL. Diluted solutions were incubated at 37° C. for 5 hours. The samples were centrifuged at 14,000 rpm for 10 minutes to pellet the insoluble. The supernatant (along with an internal standard) was then evaluated by LC-MS/MS using a ballistic gradient (from 5% CH3CN-0.5% formic acid to 95% CH3CN-1.0% formic acid in 3.5 minutes) on a Waters Atlantis dC18 (50 mm×2.1 mm) column at room temperature against a calibration curve prepared at known compound concentrations ranging from 0.005 to 50 μM. The concentration in the supernatant was calculated as % unbound to aluminum hydroxide compared to control; the % bound to aluminum hydroxide was calculated as 100% minus % unbound.
Series [2] in a line: Pharmacokinetics and mass balance of aluminum and Compound 15 in male Wistar rats (Example 12). The class given is in vivo, rat. Particulars: single i.v. dose equivalent to 0.2 mg of aluminum per animal. On the procedure: The pharmacokinetics and mass balance of aluminum and Compound 15 were investigated following a single subcutaneous (s.c.) dose (1 mL) of Suspension H (Compound 15/Alhydrogel® at a 2:1 ratio of aluminum to Compound 15) in male Wistar rats. In addition, the pharmacokinetics of aluminum were investigated following a single intravenous (i.v.) dose (0.5 mL) of 0.4 mg/mL AlCl3.6H2O (equivalent to 0.2 mg of aluminum) in male Wistar rat. Additionally, a control group dosed subcutaneously with saline were evaluated for environmental background aluminum levels.
Metal free/trace metal grade containers/tubes/tips (<1 ng/g Al) were used for sample handling. Aluminum content was analyzed in serum and urine (Frontage Laboratories).
Approximately 0.3 to 0.5 mL of blood samples were collected from carotid artery cannulation at 0 (pre dose), 0.083 (IV only), 0.25 (IV only), 0.5, 3, 6, 24, 72, 168, 336, 504, 672 hours post dose.
Urine was collected from each animal for the following periods: 0 (24 h before dose), 0-24, 24-48, 48-72, 72-96, 96-168 hours post dose, then weekly up to 672 h. The urine samples were stored at −20° C. until analyzed. Feces were collected from each animal and samples were pooled per subject at the end of study at 672 h.
Compound 15 and aluminum levels were analyzed in the serum and urine samples obtained from the s.c. group whereas only aluminum levels were analyzed in the i.v. group.

A further series deals with MC38 tumors. As to the kind of experiment: Contralateral MC38 colon cancer model, alone or with checkpoint inhibitors. Particulars: single agents; Compound 15 50 μg i.t. weekly x2, antibodies 10 mg/kg i.p. twice weekly. The class given is in vivo, mouse. On the procedure: MC38 cells were grown in sterile conditions in a 37° C. incubator with 5% CO2 for two weeks. The cells were cultured in Dulbecco's Modified Eagle's medium (DMEM) media supplemented with 10% FBS, cells were passed every 2-3 days. On the day of injection, cells were harvested (Passage 12) and re-suspended in Hanks' Balanced Salt Solution (HBSS) at a concentration of 2.5×10^6/ml. Cells were Radil tested for mycoplasma and murine viruses.
For each mouse, 0.25×10^6 cells were implanted with subcutaneously injection into right flank using a 28½ g needle ([…]). After the first implantation on day 3 (0.25×10^6) cells are implanted with a subcutaneous injection into left flank using a 28½ g needle (100 μL injection volume). Tumor sizes were assessed three times a week once tumors were palpable. Tumor sizes were determined by using caliper measurements, with tumor volumes calculated using the formula: (Length×Width×Width)/2.
Female C57BL/6 mice bearing the MC38 tumors were randomized into 7 groups (n=9 mice per group) 9 days post tumor cell implantation with an average tumor volume range of 69.09-142.25 mm^3, and the separate groups of tumor bearing mice received treatment as shown in Table 17.
The anti-tumor efficacy of Compound 15 adsorbed to aluminum hydroxide (Alhydrogel®) alone or in combination with checkpoint inhibitors, was determined using a contralateral MC38 colon cancer model. The tumor volume was obtained after two weekly intratumoral injections of Compound 15 adsorbed to aluminum hydroxide (50 μg each) either alone (Group 2), in a double combination with intraperitoneal injection (twice weekly) of an anti-PD-L1 antibody (10 mg/kg) (Group 5), in a double combination with intraperitoneal injection (twice weekly) of an anti-CTLA4 antibody (10 mg/kg) (Group 6), or in a triple combination with intraperitoneal injection (twice weekly) of an anti-PD-L1 antibody (10 mg/kg) and with intraperitoneal injection of an anti-CTLA4 antibody (10 mg/kg) (group 7). For comparison, data was obtained after an intraperitoneal injection (twice weekly) of the anti-PD-L1 antibody (10 mg/kg) alone (Group 3) and after an intraperitoneal injection (twice weekly) of the anti-CTLA4 antibody (10 mg/kg) alone (Group 4). The untreated control data was also obtained (Group 1).
The anti-tumor efficacy of Compound 15 alone (without aluminum hydroxide (Alhydrogel®)) or in combination with checkpoint inhibitors was determined using a contralateral MC38 colon cancer model. […] In addition, the anti-tumor efficacy of Compound 15 adsorbed to aluminum hydroxide (Alhydrogel®) alone or in a triple combination with checkpoint inhibitors was determined using a contralateral MC38 colon cancer model. […]

Series [3] relates to MC38 syngeneic colon cancer tumor model. Briefly: MC38 syngeneic colon cancer tumor model, tumor volume at injection site and distant site. The class given is in vivo, mice. Particulars: One-Way ANOVA post hoc Tukey, difference from no treatment. From the text: FIG. 10: A) Efficacy at the intratumor injection site following administration of Compound 15/aluminum hydroxide, an anti-PDL1 antibody or an anti-CTLA4 antibody as single agents or after the administration of combinations of Compound 15/aluminum hydroxide and an anti-PDL1 antibody and/or an anti-CTLA4 antibody.
The effect on tumor volume by administration of a compound of Formula (A), in the presence of aluminum-containing particles, with and without the administration of one or more checkpoint inhibitors is shown in Example 14.
Percent treatment/control (T/C) values for tumor were calculated using the following formula: % T/C=100×ΔT/ΔC if ΔT>0% % Regression=100×ΔT/Tinitial if ΔT<0 where: • T=mean tumor volume of the drug-treated group on the final day of the study; • ΔT=mean tumor volume of the drug-treated group on the final day of the study minus mean tumor volume of the drug-treated group on initial day of dosing; • Tinitial=mean tumor volume of the drug-treated group on initial day of dosing; • C=mean tumor volume of the control group on the final day of the study; • ΔC=mean tumor volume of the control group on the final day of the study minus mean tumor volume of the control group on initial day of dosing. All data were expressed as mean±standard error of the mean (SEM). Delta tumor volume

As to `Cc1cc(OCCOCCOCCC(F)(F)P(=O)(O)O)ccc1CCc1cnc2c(N)nc3cc(CCC(=O)O)ccc3c2c1` [Compound 18, 3-(5-amino-2-(4-(2-(2-(3,3-difluoro-3-phosphonopropoxy)ethoxy)ethoxy)-2-methylphenethyl)benzo[f][1,7]naphthyridin-8-yl)propanoic acid], the “% Bound” value in series [1] is 96.2%.

Take `Cc1cc(OCCOCCOCCP(=O)(O)O)ccc1CCc1cnc2c(N)nc3cc(CCC(=O)O)ccc3c2c1` [Compound 20, 3-(5-amino-2-(2-methyl-4-(2-(2-(2-phosphonoethoxy)ethoxy)ethoxy)phenethyl)benzo[f][1,7]naphthyridin-8-yl)propanoic acid]: in series [1], the “% Bound” value came to 97.0%.

Regarding `O.O.O.O.O.O.[Al+3].[Cl-].[Cl-].[Cl-]` [AlCl3.6H2O], in series [2], the AUClast of aluminum came out at 67400 ng·h/mL, the “mean Cmax of aluminum in serum” value turned out to be 26000 ng/mL, the “mean Tmax of aluminum” value stood at 13.2 min and the “mean recovery of aluminum in urine” value is about 0.2 mg.

Regarding `Cc1ccc2c(c1)nc(N)c1ncc(CCc3ccc(OCCOCCOCCC(F)(F)P(=O)(O)O)cc3C)cc12` [Compound 1, (3-(2-(2-(4-(2-(5-amino-8-methylbenzo[f][1,7]naphthyridin-2-yl)ethyl)-3-methylphenoxy)ethoxy)ethoxy)-1,1-difluoropropyl)phosphonic acid], the “% Bound” value in series [1] is recorded as 98.2%.

For the molecule `Cc1cc(OCCCC(F)(F)P(=O)(O)O)ccc1CCc1cnc2c(N)nc3cc(CCC(=O)O)ccc3c2c1` [Compound 17, 3-(5-amino-2-(4-(4,4-difluoro-4-phosphonobutoxy)-2-methylphenethyl)benzo[f][1,7]naphthyridin-8-yl)propanoic acid], in series [1], the “% Bound” value is given as 94.5%.

B1: anti-PD-L1: Anti-PD-L1 antibody BAP058-hum13 with heavy chain variable domain of SEQ ID NO:7 and light chain variable domain of SEQ ID NO:17 (antibody, V domains shown)
VH: EVQLVQSGAEVKKPGATVKISCKVSGYTFTSYWMYWVRQARGQRLEWIGRIDPNSGSTKYNEKFKNRFTISRDNSKNTLYLQMNSLRAEDTAVYYCARDYRKGLYAMDYWGQGTTVTVSS
VL: AIQLTQSPSSLSASVGDRVTITCKASQDVGTAVAWYLQKPGQSPQLLIYWASTRHTGVPSRFSGSGSGTDFTFTISSLEAEDAATYYCQQYNSYPLTFGQGTKVEIK
For B1, in the series on MC38 tumors, the “% T/C at the contralateral tumor site” value was 27.02% and the “% T/C at the primary injection site” value is given as 56.22%.

B2: Anti PD-L1: anti-PDL1 antibody, inhibitor of the PD-L1 ligand, used as single agent or combination partner (antibody, V domains shown)
VH: EVQLVQSGAEVKKPGATVKISCKVSGYTFTSYWMYWVRQARGQRLEWIGRIDPNSGSTKYNEKFKNRFTISRDNSKNTLYLQMNSLRAEDTAVYYCARDYRKGLYAMDYWGQGTTVTVSS
VL: AIQLTQSPSSLSASVGDRVTITCKASQDVGTAVAWYLQKPGQSPQLLIYWASTRHTGVPSRFSGSGSGTDFTFTISSLEAEDAATYYCQQYNSYPLTFGQGTKVEIK
In the case of B2, the “Efficacy at a site distant from the injection site (distant site tumor)” value in series [3] (post implant day 19, N=9 per group) is listed as “significantly different”. For the same molecule, in series [3] (post implant day 22, N=9 per group), the “Efficacy at the intratumor injection site (treated site tumor)” value is “significantly different”.

Values taken from US11752162B2, “Compounds and compositions for treating solid tumors by intratumoral administration” (Novartis AG, priority 2017, dated 2023).
